The target in one test is T1, SHP2 (Homo sapiens, UniProt Q06124).
T1 construct: the GST fusion of the PTP domains of SHP2, SHP1, and PTP1B were produced and purified as reported by us previously; GST; made in house
T1 sequence (Q06124 247-517 limits assumed): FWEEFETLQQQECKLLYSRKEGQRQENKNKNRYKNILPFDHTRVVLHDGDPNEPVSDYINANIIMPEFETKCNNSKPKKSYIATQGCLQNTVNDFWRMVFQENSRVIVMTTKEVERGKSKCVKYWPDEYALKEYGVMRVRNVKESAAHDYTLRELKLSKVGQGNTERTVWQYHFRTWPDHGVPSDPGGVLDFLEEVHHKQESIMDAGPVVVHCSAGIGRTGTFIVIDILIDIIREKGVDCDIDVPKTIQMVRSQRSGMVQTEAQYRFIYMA
Kind of test: Enzyme kinetic study (Michaelis-Menten, Lineweaver-Burk) with DiFMUP. In kind it is biochemical. As to conditions: Km increased without change in Vmax. The protocol:
As such, its mechanism of inhibition is expected to be through competitive binding to the active site. To verify this point, we conducted enzyme kinetic studies using the artificial substrate DiFMUP in the presence and absence of CNBCA. Briefly, 400 μM DiFMUP in the PTPase buffer was added to the 12th well in the 96-well plate and then serially diluted to as low as 3.12 μM in the successive wells. After adding the enzyme to a final concentration of 1.0 nM in a total volume of 100 μL, the fluorescence of the enzyme reaction rate was measured for a total of 3 min at 10 s interval in the Synergy 4 plate reader at the excitation and emission wavelengths of 360 and 460 nm, respectively. The data was transformed into relative fluorescence unit (RFU) per second and plotted using the Graphpad software to produce the Michaelis–Menten and the Lineweaver–Burk plots.
In these reactions, the enzyme was added last, and the fluorescence was read for 3 min at 10 s interval. Changes in fluorescence intensity were used to calculate the Km of the SHP2 enzyme for DiFMUP in the presence and absence of CNBCA. The Graphpad Prism was used to prepare the Michaelis–Menten and Lineweaver–Burk plots and to determine the Km values.

The target in the next test is T2, PTP1B (Homo sapiens, UniProt P18031).
T2 construct: The GST fusion PTP domains of SHP1 and PTP1B were expressed and purified in a fashion similar to that of SHP2; GST; made in house
T2 sequence (P18031 3-277 limits assumed): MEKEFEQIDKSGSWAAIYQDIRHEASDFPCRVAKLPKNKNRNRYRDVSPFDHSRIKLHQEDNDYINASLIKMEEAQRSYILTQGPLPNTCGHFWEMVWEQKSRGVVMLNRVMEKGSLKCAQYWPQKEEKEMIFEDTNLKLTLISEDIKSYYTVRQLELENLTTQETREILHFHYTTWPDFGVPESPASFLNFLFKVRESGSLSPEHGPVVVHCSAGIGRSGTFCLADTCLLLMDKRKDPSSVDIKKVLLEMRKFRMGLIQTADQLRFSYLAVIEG
Briefly: PTPase assay, GST-fusion PTP domain of PTP1B, DiFMUP substrate. In kind it is biochemical. The protocol:
After completion of synthesis, both CNBCA and CNBBA were purified on silica gel, and purity was determined by HPLC. The purified compounds were then tested for their effect on the SHP2 enzyme activity and on the activity of the selected control PTPs (SHP1 and PTP1B) by the phosphotyrosyl phosphatase (PTPase) assay as described previously.[30],[31] First, the GST fusion of the PTP domains of SHP2, SHP1, and PTP1B were produced and purified as reported by us previously.[32] The reactions were performed in a buffer containing 10 mM Tris-HCl (pH 7.2), 100 mM NaCl, 1 mM EDTA, 1 mM dithiothreitol (DTT), and 0.01% Tween-20. […] The complete mixture was incubated at 37 °C for 20 min, and fluorescence intensity was measured by the Synergy 4 plate reader at the excitation and emission wavelengths of 360 and 460 nm, respectively. The half inhibitory concentration (IC50) value of each compound was calculated and plotted using Graphpad Prism software. […]
We used the PTPase assay described previously[30],[31] to evaluate the effect of the newly synthesized compounds on the enzymatic activity of SHP2, SHP1, and PTP1B. […] The mixtures were incubated at 37 °C for 20 min and transferred to 96 well plates, and the fluorescence intensity was measured by a Synergy 4 plate reader at the excitation and emission wavelengths of 360 and 460 nm, respectively. […]

Usually IC50 stands for the point on the concentration scale where inhibition reaches its midpoint.

Each structure is given as a SMILES string.

`CCCCCCCCCOc1ccc(-c2ccc(C(=O)O)cc2)cc1CCCC(=O)O` [CNBCA, 3′-(3-carboxypropyl)-4′-(nonyloxy)-[1,1′-biphenyl]-4-carboxylic acid]: the mechanism of inhibition entry at SHP2 is listed as “competitive inhibitor”. In addition, the IC50 at PTP1B (PTP domain, 1 nM enzyme, 10 μM DiFMUP) was determined as 25 µM. Besides, on PTP1B (SHP2 IC50 as reference), the “selectivity ratio PTP1B versus SHP2” value is recorded as 28.73 fold.
